Measured values published in patent publication US20260207504A1, “STABILIZATION OF LIPID NANOPARTICLE FORMULATIONS” (Eli Lilly and Company, priority 2022, published 2026).

Experiment: Lipid chemical stability in PBS or histidine buffer solution (LC-MS)
Assay type: physicochemical
Settings: for primary degradation pathway: LC-MS; for stability in BT5933 glass vials relative to COP vials: diluted with PBS buffer
Procedure: Stock MC3 lipidic solutions were prepared by dissolving MC3 in an ethanolic solution to a final concentration of 4 mg/mL (e.g., 6 mM). Similarly, stock lipidic DOTAP solutions were prepared by dissolving DOTAP in an ethanolic solution to a final concentration of 4 mg/mL. Stock solutions of phosphate buffered saline (1×, pH 7.4) were used. Final lipidic solutions were prepared by mixing PBS stock to the lipidic stock in a ratio of 3:1 (e.g., PBS stock:DOTAP stock in ethanol=3:1; PBS stock:MC3 stock in ethanol=3:1). Solutions were stored in either glass (BT5933) or polymer (COP) vials.
Dilute lipidic solutions were frozen at −70° C. before being thawed and stored at either 5° C., 25° C., or 40° C. for either 1 week, 2 weeks, or 4 weeks. At each timepoint, (e.g., after 1 week, 2 weeks, or 4 weeks) the lipid solution was analyzed via LC-MS to determine the extent of hydrolysis and/or oxidation present.
MC3 and DOTAP lipids were prepared using either PBS or Histidine buffers. Ethanolic stock solutions of MC3 and DOTAP were prepared as described in Example 1. PBS-based solutions were prepared by diluting the stock lipid solutions, respectively, by 3:1 (PBS:lipid in ethanol (vol/vol)) using 1× PBS, pH 7.4. Histidine-based solutions were also prepared by diluting the stock lipidic solution by 3:1 (histidine:lipid in ethanol vol/vol) using a histidine buffer (10 mM, pH 6.0). Solutions were filled into BT5933, COP, or Valor glass vials at 1 mL aliquots and put on stability. Initial control samples were immediately frozen at −70° C.
Filled vials were stored at either 5° C., 25° C., or 40° C. for either 1 week, 2 weeks, or 4 weeks. At each timepoint, (e.g., after 1 week, 2 weeks, or 4 weeks) the lipid solution was analyzed via LC-MS to determine the extent of hydrolysis and/or oxidation present.

[1] = diluted in 1X PBS pH 7.4, 5, 25, 40° C., 1, 2, 4 weeks
[2] = histidine buffer (10 mM, pH 6.0) vs PBS, 5, 25, 40° C., 1-4 weeks

## CCCCCCCC/C=C\CCCCCCCC(=O)OCC(C[N+](C)(C)C)OC(=O)CCCCCCC/C=C\CCCCCCCC (stereo not drawn) [DOTAP, 1,2-dioleoyl-3-trimethylammonium-propane]
[1]
  % lipid intact: decreased with increasing storage time
Diluted in 1X PBS pH 7.4
  primary degradation pathway: hydrolysis
  stability in BT5933 glass vials relative to COP vials: better stability
[2]
  % hydrolysis: decreased the % hydrolysis of DOTAP relative to storage in PBS
  % lipid intact: stabilized the % DOTAP intact at all storage conditions tested

## CCCCC/C=C\C/C=C\CCCCCCCCC(CCCCCCCC/C=C\C/C=C\CCCCC)OC(=O)CCCN(C)C [MC3, 4-(dimethylamino)-butanoic acid, (10Z,13Z)-1-(9Z,12Z)-9,12-octadecadien-1-yl-10,13-nonadecadien-1-yl ester]
[1]
  % lipid intact: lower than the % DOTAP for the same time points
Diluted in 1X PBS pH 7.4
  primary degradation pathway: oxidation
  stability in BT5933 glass vials relative to COP vials: improved stability relative to COP vials
[2]
  % hydrolysis: significantly reduced lipid hydrolysis of MC3
  % lipid intact: increasing the % MC3 intact at all storage conditions tested
  degree of oxidation: reduced the degree of oxidation
Storage in Valor glass vials vs other vials
  oxidation rate: lower oxidation rate
